Experimental data as given in US8436159B2, “Glyphosate resistant class I 5-endolpyruvylshikimate-3-phosphate synthase (EPSPS)” (Monsanto Technology LLC, priority 2003, dated 2013).
Changes are numbered by the printed parent chain.

Assays:
[1] = target: T1, maize (Zea mays) class I EPSPS variant TIPT (T102I, P106T), pMON58452, ZmTIPT SEQ ID NO:38 (Zea mays, UniProt O24566, P106T/T102I); experiment: EPSPS steady-state kinetics, TIPT variant; type: biochemical
T1 construct: pMON58452
T1 sequence (O24566 1-444 T102I/P106T): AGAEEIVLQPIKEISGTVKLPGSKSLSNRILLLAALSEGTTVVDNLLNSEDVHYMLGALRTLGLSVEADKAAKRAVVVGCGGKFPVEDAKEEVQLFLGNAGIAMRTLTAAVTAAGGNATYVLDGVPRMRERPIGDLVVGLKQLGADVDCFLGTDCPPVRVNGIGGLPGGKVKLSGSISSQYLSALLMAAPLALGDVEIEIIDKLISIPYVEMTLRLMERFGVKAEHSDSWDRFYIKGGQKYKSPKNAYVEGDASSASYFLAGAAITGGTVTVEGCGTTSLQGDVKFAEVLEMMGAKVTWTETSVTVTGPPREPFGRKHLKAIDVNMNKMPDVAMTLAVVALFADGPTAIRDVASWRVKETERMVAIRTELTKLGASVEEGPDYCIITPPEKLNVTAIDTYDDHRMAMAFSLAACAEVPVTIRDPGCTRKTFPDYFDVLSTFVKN
Source text: (§1) The double variants of the present invention were made using pMON58452 (FIG. 5) as the template. This pMON58452 EPSPS gene template contains the maize EPSPS double variant T102I, P106T (TIPT) that was constructed by mutagenesis of pMON70467 with the mutagenesis primers mEmut-9-U and mEmut-10-L. The various mutagenesis primer sequences were designed and then were synthesized by Invitrogen Corp., Custom Primers and used in combination in a PCR to create the variant EPSPS coding sequences. The PCR was set up in a 50 μl reaction in the following manner: dH2O 38 μl; 2 mM dNTP 1 μL; 10× buffer 5 μL; pMON58452 1 μL (10 ng); primer-U 2 μL; primer-L 2 μL; pfu Turbo enzyme 1 μL. PCR was carried out on a MJ Research PTC-200 thermal cycler using the following program: Step 1—94° C. for 30 seconds; Step 2—94° C. for 30 seconds; Step 3—55° C. for 1 minute; Step 4—68° C. for 14 minute; Step 5—go to step 2, 16 times; Step 6—End. At the end of the PCR, 1 μl of the restriction enzyme DpnI was added to each 50 μl of PCR reaction and the mixture was incubated at 37° C. for 1 hour. […]

[2] = target: T2, maize (Zea mays) class I EPSPS variant TIPC (T102I, P106C), pMON42485 (Zea mays, UniProt O24566, P106C/T102I); experiment: EPSPS steady-state kinetics, TIPC variant
T2 sequence (O24566 1-444 T102I/P106C): T1 sequence (O24566 1-444 T102I/P106T) with T106C
Source text: as §1

Structure (SMILES): O=C(O)CNCP(=O)(O)O [glyphosate, N-phosphonomethylglycine]
- Ki [1]: 101 ± 12.7 µM
- Ki [2]: 818 ± 74.4 µM
